How the values were obtained:
Format in all cases: biochemical
CDK9/Cyclin T1 = biological target: T1, CDK9/Cyclin T1 (Homo sapiens, UniProt P50750); assay: Kinase assay using CDK9/Cyclin T1; settings: read-out: CDK9 (activity range)
T1 construct: made in house; host or cells: HEK293 cells, recombinant adenovirus
Procedure, shortened: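 Recombinant CDK9/Cyclin T1 produced via adenoviral expression from gateway-cloned cDNAs. Kinase reaction run essentially per a published protocol.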

CDK4 = CDK4 (Homo sapiens, UniProt P11802); assay: Kinase assay, CDK4 activity range (Table 2)
CDK2/CyclinA = biological target: T2, CDK2/CyclinA (Homo sapiens, UniProt P24941); assay: Kinase assay determining CDK2/CyclinA activity; settings: read-out: CDK2 (activity range)
T2 construct: purchased Proqinase
Method: Kinase Assays Determining CDK2/CyclinA and CDK5/p35 Activity:
Kinase assays were performed as described by the manufacturers recommendations (Proqinase for CDK2/CyclinA and Upsate for CDK5/p35).

T1 sequence (P50750 whole entry): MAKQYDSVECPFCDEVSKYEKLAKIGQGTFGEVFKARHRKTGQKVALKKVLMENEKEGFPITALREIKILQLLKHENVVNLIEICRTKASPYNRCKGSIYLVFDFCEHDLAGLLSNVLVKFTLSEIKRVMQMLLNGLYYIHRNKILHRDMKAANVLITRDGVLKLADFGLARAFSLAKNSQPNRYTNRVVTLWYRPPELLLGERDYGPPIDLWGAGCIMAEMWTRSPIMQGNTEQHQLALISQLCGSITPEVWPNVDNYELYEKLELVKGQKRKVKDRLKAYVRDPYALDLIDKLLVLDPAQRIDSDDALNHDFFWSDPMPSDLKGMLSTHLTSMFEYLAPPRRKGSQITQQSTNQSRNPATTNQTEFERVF
T1 sequence (O60563 whole entry partner): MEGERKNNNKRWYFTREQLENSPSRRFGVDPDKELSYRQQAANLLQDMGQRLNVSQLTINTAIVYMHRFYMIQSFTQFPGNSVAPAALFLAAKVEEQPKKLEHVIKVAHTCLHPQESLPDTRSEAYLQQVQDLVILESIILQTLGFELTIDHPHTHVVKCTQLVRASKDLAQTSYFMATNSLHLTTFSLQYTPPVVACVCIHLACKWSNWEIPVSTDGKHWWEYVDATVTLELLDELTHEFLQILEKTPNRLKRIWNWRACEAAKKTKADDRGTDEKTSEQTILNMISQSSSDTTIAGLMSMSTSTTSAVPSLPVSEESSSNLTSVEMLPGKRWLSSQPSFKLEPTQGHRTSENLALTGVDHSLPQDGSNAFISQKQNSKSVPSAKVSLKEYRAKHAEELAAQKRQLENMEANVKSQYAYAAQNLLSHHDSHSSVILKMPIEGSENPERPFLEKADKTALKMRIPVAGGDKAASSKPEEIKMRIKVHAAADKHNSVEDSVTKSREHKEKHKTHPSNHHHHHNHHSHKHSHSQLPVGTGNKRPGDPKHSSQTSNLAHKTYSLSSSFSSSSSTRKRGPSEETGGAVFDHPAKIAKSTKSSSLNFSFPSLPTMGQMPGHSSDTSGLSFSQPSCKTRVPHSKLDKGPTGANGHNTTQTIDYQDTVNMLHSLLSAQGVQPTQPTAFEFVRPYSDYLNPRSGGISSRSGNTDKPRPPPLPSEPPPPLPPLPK
Sequence of CDK4 (P11802 whole entry, species assumed): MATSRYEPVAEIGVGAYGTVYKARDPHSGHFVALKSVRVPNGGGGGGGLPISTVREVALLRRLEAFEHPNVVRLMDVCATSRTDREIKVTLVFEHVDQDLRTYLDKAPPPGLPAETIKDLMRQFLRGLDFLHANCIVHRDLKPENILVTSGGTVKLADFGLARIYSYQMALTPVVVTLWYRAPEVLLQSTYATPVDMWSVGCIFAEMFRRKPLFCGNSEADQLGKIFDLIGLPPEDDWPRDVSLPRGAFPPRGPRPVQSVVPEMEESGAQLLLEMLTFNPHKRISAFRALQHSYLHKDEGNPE
Sequence of CDK4 (P24385 whole entry partner, species assumed): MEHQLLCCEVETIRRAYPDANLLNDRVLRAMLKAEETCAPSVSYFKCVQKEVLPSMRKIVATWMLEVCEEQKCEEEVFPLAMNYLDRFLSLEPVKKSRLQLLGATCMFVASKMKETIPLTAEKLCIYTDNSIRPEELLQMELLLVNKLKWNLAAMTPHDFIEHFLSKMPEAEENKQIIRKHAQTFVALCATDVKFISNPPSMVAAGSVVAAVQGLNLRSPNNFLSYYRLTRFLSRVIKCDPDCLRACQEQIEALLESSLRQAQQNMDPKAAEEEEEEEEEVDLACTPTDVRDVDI

| SMILES | IC50 (CDK9/Cyclin T1) | IC50 (CDK4) | IC50 (CDK2/CyclinA) |
| --- | --- | --- | --- |
| O=C(Nc1ccc(Nc2cc(-c3ccccc3OC(F)(F)F)ncn2)cc1)[C@@H]1CCCCN1 [(190)] | 1000 to 10000 nM | 1000 to 10000 nM |  |
| CSc1ccccc1-c1cc(Nc2ccc(NC(=O)[C@@H]3CCCCN3)cc2)ncn1 [(189)] | 1 to 1000 nM | 1 to 1000 nM | 1000 to 10000 nM |
| CC(=O)Nc1cccc(-c2cc(Nc3ccc(C)c(NS(C)(=O)=O)c3)ncn2)c1 [(104)] | 1 to 1000 nM | 10000 to 250000 nM | 1000 to 10000 nM |
| COc1ccccc1-c1cc(Nc2ccc(NC(=O)CC3CCCCN3)cc2)ncn1 (stereo not drawn) [(59)] | 1 to 1000 nM | 1 to 1000 nM | 1000 to 10000 nM |
| NC(=O)c1ccc(Nc2cc(-c3ccccc3OCc3ccccc3)ncn2)cc1 [(95)] | 1 to 1000 nM | 1000 to 10000 nM | 1 to 1000 nM |
| NC1CCCCC1NC(=O)c1ccc(Nc2cc(-c3ccccc3OCc3ccccc3)ncn2)cc1 (stereo not drawn) [(198)] | 1 to 1000 nM | 1 to 1000 nM | 1 to 1000 nM |
| COc1ccccc1-c1cc(Nc2ccc(NC(=O)[C@@H](N)C(C)C)cc2)ncn1 [(143)] | 1 to 1000 nM | 1000 to 10000 nM | 1000 to 10000 nM |
| Cc1ccc(Nc2cc(-c3cccc(C(F)(F)F)c3)ncn2)cc1NS(C)(=O)=O [(107)] | 10000 to 250000 nM | 10000 to 250000 nM | 10000 to 250000 nM |
| NCCCOc1ccccc1-c1cc(Nc2ccc(NC(=O)c3ccc(N)cc3)cc2)ncn1 [(103)] | 1 to 1000 nM | 10000 to 250000 nM | 1000 to 10000 nM |
| COc1ccccc1-c1cc(Nc2ccc(NC(=O)CCN)cc2)ncn1 [(102)] | 1 to 1000 nM | 1 to 1000 nM | 1000 to 10000 nM |
| COc1ccccc1-c1cc(Nc2ccc(N)cc2)ncn1 [(22)] | 1 to 1000 nM | 1000 to 10000 nM | 1 to 1000 nM |
| COc1ccccc1-c1cc(Nc2ccc(NC(=O)C3CCCN(C)C3)cc2)ncn1 (stereo not drawn) [(87)] | 1 to 1000 nM | 1000 to 10000 nM | 1000 to 10000 nM |
| COc1ccccc1-c1cc(Nc2ccc(NC(=O)[C@@H]3Cc4ccccc4CN3)cc2)ncn1 [(65)] | 1 to 1000 nM | 10000 to 250000 nM | 1000 to 10000 nM |
| CCN(CC)CCC(=O)Nc1ccc(Nc2cc(-c3ccccc3OC)ncn2)cc1 [(64)] | 1 to 1000 nM | 1000 to 10000 nM | 1000 to 10000 nM |
| COc1ncccc1-c1cc(Nc2ccc(NC(=O)[C@@H]3CCCCN3)cc2)ncn1 [(171)] | 1 to 1000 nM | 1000 to 10000 nM | 1000 to 10000 nM |
| CC(C)Oc1ccccc1-c1cc(Nc2ccc(NC(=O)[C@@H]3CCCCN3)cc2)ncn1 [(188)] | 1 to 1000 nM | 1 to 1000 nM | 1000 to 10000 nM |
| COc1ccccc1-c1cc(Nc2ccc(C(N)=O)cc2)ncn1 [(14)] | 1 to 1000 nM | 10000 to 250000 nM | 1 to 1000 nM |
| COc1ccccc1-c1cc(Nc2ccc(NC(C)=O)cc2)ncn1 [(10)] | 1 to 1000 nM | 1000 to 10000 nM | 1 to 1000 nM |
| Cc1ccc(Nc2cc(-c3cccc(O)c3)ncn2)cc1NS(C)(=O)=O [(105)] | 1 to 1000 nM | 10000 to 250000 nM | 1 to 1000 nM |
| COc1ccccc1-c1cc(Nc2ccc(NC(=O)[C@H]3CCCCN3)cc2)ncn1 [(69)] | 1 to 1000 nM | 1 to 1000 nM | 1000 to 10000 nM |
| COc1ccccc1-c1cc(Nc2ccc(NC(=O)CN(C)C)cc2)ncn1 [(46)] | 1 to 1000 nM | 1000 to 10000 nM | 1000 to 10000 nM |
| COc1ccccc1-c1cc(Nc2ccc(NC(=O)[C@@H](N)c3ccccc3)cc2)ncn1 [(81)] | 1 to 1000 nM | 1000 to 10000 nM | 1000 to 10000 nM |
| COc1ccccc1-c1cc(Nc2ccc(NC(=O)C3CCN(C)CC3)cc2)ncn1 [(89)] | 1 to 1000 nM | 1000 to 10000 nM | 1000 to 10000 nM |
| COc1ccccc1-c1cc(Nc2ccc(NC(=O)C3(N)CCCCC3)cc2)ncn1 [(66)] | 1 to 1000 nM | 1000 to 10000 nM | 1000 to 10000 nM |
| O=Cc1cccc(-c2cc(Nc3ccc(NC(=O)[C@@H]4CCCCN4)cc3)ncn2)c1 [(168)] | 1000 to 10000 nM | 1000 to 10000 nM |  |
| COc1ccccc1-c1cc(Nc2ccc(NS(C)(=O)=O)cc2)ncn1 [(33)] | 1 to 1000 nM | 1000 to 10000 nM | 1 to 1000 nM |

| SMILES | IC50 (CDK9/Cyclin T1) | IC50 (CDK4) | IC50 (CDK2/CyclinA) |
| --- | --- | --- | --- |
| CC(C)Oc1ccccc1-c1cc(Nc2ccc(C(=O)N[C@@H]3CCCC[C@H]3N)cc2)ncn1 (racemic) [(199)] | 1 to 1000 nM | 1000 to 10000 nM | 1000 to 10000 nM |
| COc1ccccc1-c1cc(Nc2ccc(NC(=O)[C@H]3CCCN3)cc2)ncn1 [(91)] | 1 to 1000 nM | 1000 to 10000 nM | 1000 to 10000 nM |
| COc1ccccc1-c1cc(Nc2ccc(C(=O)NC3CCCNC3)cc2)ncn1 (stereo not drawn) [(86)] | 1 to 1000 nM | 1 to 1000 nM | 1 to 1000 nM |
| COc1ccccc1-c1cc(Nc2cccc(NC(=O)[C@@H]3CCCCN3)c2)ncn1 [(128)] | 1 to 1000 nM | 1000 to 10000 nM | 1 to 1000 nM |
| Cc1ccc(Nc2cc(-c3ccccc3)ncn2)cc1NS(C)(=O)=O [(106)] | 1 to 1000 nM | 10000 to 250000 nM | 1 to 1000 nM |
| CN[C@H](C(=O)Nc1ccc(Nc2cc(-c3ccccc3OC)ncn2)cc1)c1ccccc1 [(82)] | 1 to 1000 nM | 1000 to 10000 nM | 1000 to 10000 nM |
| CNC(C)(C)C(=O)Nc1ccc(Nc2cc(-c3ccccc3OC)ncn2)cc1 [(118)] | 1 to 1000 nM | 1 to 1000 nM | 1000 to 10000 nM |
| COc1ccccc1-c1cc(Nc2cccc(N)c2)ncn1 [(124)] | 1 to 1000 nM | 1000 to 10000 nM | 1 to 1000 nM |
| CC[C@H](C)[C@H](N)C(=O)Nc1ccc(Nc2cc(-c3ccccc3OC)ncn2)cc1 [(140)] | 1 to 1000 nM | 1000 to 10000 nM | 1000 to 10000 nM |
| COc1ccccc1-c1cc(Nc2ccc(C(=O)N[C@@H]3CCCC[C@H]3N)cc2)ncn1 (racemic) [(83)] | 1 to 1000 nM | 1000 to 10000 nM | 1000 to 10000 nM |
| COc1ccccc1-c1cc(Nc2ccc(N3CCCC3=O)cc2)ncn1 [(9)] | 1 to 1000 nM | 1 to 1000 nM | 1 to 1000 nM |
| COc1cccc(-c2cc(Nc3ccc(NC(=O)[C@@H]4CCCCN4)cc3)ncn2)c1OC [(186)] | 1000 to 10000 nM | 1000 to 10000 nM | 10000 to 250000 nM |
| CCCCNS(=O)(=O)c1cccc(Nc2cc(-c3ccccc3OC)ncn2)c1 [(184)] | 1 to 1000 nM |  | 1000 to 10000 nM |
| COc1ccc(-c2cc(Nc3ccc(NC(=O)[C@@H]4CCCCN4)cc3)ncn2)c(OC)c1 [(187)] | 1 to 1000 nM | 1 to 1000 nM | 1000 to 10000 nM |
| COc1ccc(C(C)C)cc1-c1cc(Nc2ccc(NC(=O)c3ccc(N)cc3)cc2)ncn1 [(35)] | 10000 to 250000 nM |  | 10000 to 250000 nM |
| COc1ccc(Cl)cc1-c1cc(Nc2ccc(NC(=O)c3ccc(N)cc3)cc2)ncn1 [(39)] | 1000 to 10000 nM |  | 10000 to 250000 nM |
| COc1ccccc1-c1cc(Nc2ccc(NC(=O)C3(N)CCCC3)cc2)ncn1 [(68)] | 1 to 1000 nM | 1000 to 10000 nM | 1000 to 10000 nM |
| Cc1ccc(Nc2cc(-c3cncnc3)ncn2)cc1NS(C)(=O)=O [(110)] | 1000 to 10000 nM |  | 1000 to 10000 nM |
| COc1ccccc1-c1cc(Nc2ccc(NC(=O)[C@@H]3CCCCN3)cc2)ncn1 [(30)] | 1 to 1000 nM | 1 to 1000 nM | 1000 to 10000 nM |
| COc1ccccc1-c1cc(Nc2ccc(C(=O)N3CCOCC3)cc2)ncn1 [(147)] | 1000 to 10000 nM | 1000 to 10000 nM |  |
| COc1ccccc1-c1cc(Nc2ccc(NC(=O)c3ccc(N)cc3)cc2)ncn1 [(8)] | 1 to 1000 nM |  | 1000 to 10000 nM |
| CC(C)Oc1ccccc1-c1cc(NCCc2ccncc2)ncn1 [(99)] | 1 to 1000 nM |  | 1000 to 10000 nM |
| COc1ccccc1-c1cc(Nc2ccc(NC(=O)c3c[nH]c4ccccc34)cc2)ncn1 [(133)] | 1 to 1000 nM |  | 1000 to 10000 nM |
| COc1ccccc1-c1cc(Nc2ccc(C(=O)N[C@@H]3CCCC[C@H]3O)cc2)ncn1 (racemic) [(135)] | 1 to 1000 nM |  | 1000 to 10000 nM |
| CCCS(=O)(=O)Nc1cc(Nc2cc(-c3cccc(N)c3)ncn2)ccc1C [(116)] | 1 to 1000 nM |  | 1 to 1000 nM |

From patent US8084457B2, “Pharmaceutically active 4,6-disubstituted aminopyrimidine derivatives as modulators of protein kinases” (Lead Discovery Center GmbH, priority 2003, dated 2011)
